{
  "source": "ChEMBL document CHEMBL4715821",
  "about": "“Discovery of 4-ethoxy-7H-pyrrolo[2,3-d]pyrimidin-2-amines as potent, selective and orally bioavailable LRRK2 inhibitors” (Bioorg Med Chem Lett, 2018)",
  "key": {"[1]": {"assay": "Unbound fraction in mouse brain", "format": "ADME, tissue-based"}, "[2]": {"assay": "In vivo inhibition of LRRK2 in Han-Wistar rat assessed as reduction in Ser935 phosphorylation in spleen at 10 to 100 mg/kg, po by Western blot analysis", "format": "functional", "set-up": "scale not given: the % may be the effect or the level left", "conditions": "dose 10-100 mg/kg"}, "[3]": {"target": "Hepatocyte growth factor receptor (Homo sapiens) (UniProt P08581)", "assay": "Inhibition of wild-type human partial length c-MET (D1010 to S1367 residues) expressed in bacterial expression system assessed as residual activity at 1 uM by Kinomescan method relative to control"}, "[4]": {"target": "Calcium/calmodulin-dependent protein kinase kinase 1 (Homo sapiens) (UniProt Q8N5S9)", "assay": "Inhibition of wild-type human partial length CAMKK1 (R65 to E414 residues) expressed in bacterial expression system assessed as residual activity at 1 uM by Kinomescan method relative to control"}, "[5]": {"target": "CDK9/Cyclin K (Homo sapiens) (UniProt P50750+O75909)", "assay": "Inhibition of wild-type human full length CDK9 (M1 to F372 residues)/cyclin K expressed in bacterial expression system assessed as residual activity at 1 uM by Kinomescan method relative to control"}, "[6]": {"target": "Serine/threonine-protein kinase Chk1 (Homo sapiens) (UniProt O14757)", "assay": "Inhibition of CHK1 (unknown origin) assessed as residual activity at 1 uM by Kinomescan method relative to control"}, "[7]": {"target": "Mitogen-activated protein kinase kinase kinase 8 (Homo sapiens) (UniProt P41279)", "sequence (P41279 whole entry)": "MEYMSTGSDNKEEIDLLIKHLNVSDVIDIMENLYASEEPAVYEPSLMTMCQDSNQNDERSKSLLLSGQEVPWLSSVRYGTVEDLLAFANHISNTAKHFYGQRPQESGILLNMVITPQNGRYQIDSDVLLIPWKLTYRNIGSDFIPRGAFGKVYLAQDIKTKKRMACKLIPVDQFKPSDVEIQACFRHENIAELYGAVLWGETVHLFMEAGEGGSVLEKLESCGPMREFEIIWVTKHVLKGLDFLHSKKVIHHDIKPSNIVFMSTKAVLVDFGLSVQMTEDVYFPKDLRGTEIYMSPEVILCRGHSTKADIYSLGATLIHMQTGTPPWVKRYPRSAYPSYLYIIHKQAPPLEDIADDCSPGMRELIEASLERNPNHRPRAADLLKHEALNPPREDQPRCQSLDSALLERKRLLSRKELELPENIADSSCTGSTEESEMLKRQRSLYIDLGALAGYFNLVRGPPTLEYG", "assay": "Inhibition of COT1 (unknown origin) assessed as residual activity at 1 uM by Kinomescan method relative to control"}, "[8]": {"target": "Dual specificity tyrosine-phosphorylation-regulated kinase 1B (Homo sapiens) (UniProt Q9Y463)", "assay": "Inhibition of wild-type human full length DYRK1B (M1 to S629 residues) expressed in bacterial expression system assessed as residual activity at 1 uM by Kinomescan method relative to control"}, "[9]": {"target": "Receptor tyrosine-protein kinase erbB-2 (Homo sapiens) (UniProt P04626)", "sequence (P04626 whole entry, the tested form may be a part)": "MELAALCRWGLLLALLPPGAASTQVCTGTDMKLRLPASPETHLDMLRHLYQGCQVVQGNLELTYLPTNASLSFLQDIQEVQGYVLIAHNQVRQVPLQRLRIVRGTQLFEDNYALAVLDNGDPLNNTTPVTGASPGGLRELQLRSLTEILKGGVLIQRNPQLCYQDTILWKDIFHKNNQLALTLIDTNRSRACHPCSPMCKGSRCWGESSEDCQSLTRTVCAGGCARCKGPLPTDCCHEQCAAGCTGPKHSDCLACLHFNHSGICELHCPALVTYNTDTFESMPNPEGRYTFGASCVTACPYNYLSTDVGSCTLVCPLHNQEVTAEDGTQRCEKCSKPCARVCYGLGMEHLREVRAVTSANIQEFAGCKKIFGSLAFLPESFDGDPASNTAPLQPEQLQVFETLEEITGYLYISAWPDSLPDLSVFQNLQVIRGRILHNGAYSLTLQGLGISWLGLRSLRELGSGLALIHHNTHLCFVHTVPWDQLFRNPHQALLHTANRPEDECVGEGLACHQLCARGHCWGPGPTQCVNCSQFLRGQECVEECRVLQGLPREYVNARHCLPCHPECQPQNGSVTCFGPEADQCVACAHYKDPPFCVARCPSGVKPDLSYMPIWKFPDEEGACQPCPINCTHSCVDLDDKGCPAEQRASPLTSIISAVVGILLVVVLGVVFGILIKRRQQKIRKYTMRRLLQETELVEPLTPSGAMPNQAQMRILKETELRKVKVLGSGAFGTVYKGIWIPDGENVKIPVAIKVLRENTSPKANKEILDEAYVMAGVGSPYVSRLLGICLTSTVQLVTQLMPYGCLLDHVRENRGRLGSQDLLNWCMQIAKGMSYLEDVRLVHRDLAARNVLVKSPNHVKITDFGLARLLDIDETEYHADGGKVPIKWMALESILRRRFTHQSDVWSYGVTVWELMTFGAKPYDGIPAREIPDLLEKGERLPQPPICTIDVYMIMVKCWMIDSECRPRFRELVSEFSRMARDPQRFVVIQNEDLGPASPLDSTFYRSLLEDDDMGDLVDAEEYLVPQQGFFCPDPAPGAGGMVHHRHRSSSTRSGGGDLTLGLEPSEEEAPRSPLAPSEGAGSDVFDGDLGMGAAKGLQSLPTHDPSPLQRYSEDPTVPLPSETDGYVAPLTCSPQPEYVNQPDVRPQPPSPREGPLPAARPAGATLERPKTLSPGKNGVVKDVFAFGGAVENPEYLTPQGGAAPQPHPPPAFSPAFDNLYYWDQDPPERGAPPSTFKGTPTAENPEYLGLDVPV", "assay": "Inhibition of wild-type human partial length ERBB2 (K646 to V1225 residues) expressed in mammalian expression system assessed as residual activity at 1 uM by Kinomescan method relative to control"}, "[10]": {"target": "Fibroblast growth factor receptor 2 (Homo sapiens) (UniProt P21802)", "assay": "Inhibition of wild type human partial length FGFR2 (D457 to E769 residues) expressed in bacterial expression system assessed as residual activity at 1 uM by Kinomescan method relative to control"}, "[11]": {"target": "Tyrosine-protein kinase ITK/TSK (Homo sapiens) (UniProt Q08881)", "assay": "Inhibition of wild-type human partial length ITK (R335 to L620 residues) expressed in bacterial expression system assessed as residual activity at 1 uM by Kinomescan method relative to control"}, "[12]": {"target": "Mitogen-activated protein kinase kinase kinase kinase 5 (Homo sapiens) (UniProt Q9Y4K4)", "assay": "Inhibition of wild-type human partial length MAP4K5 (M1 to P297 residues) expressed in bacterial expression system assessed as residual activity at 1 uM by Kinomescan method relative to control"}, "[13]": {"target": "Serine/threonine-protein kinase Nek2 (Homo sapiens) (UniProt P51955)", "assay": "Inhibition of wild-type human partial length NEK2 (M1 to K309 residues) expressed in bacterial expression system assessed as residual activity at 1 uM by Kinomescan method relative to control"}, "[14]": {"target": "Mitogen-activated protein kinase 13 (Homo sapiens) (UniProt O15264)", "assay": "Inhibition of wild-type human full length p38-delta (M1 to L365 residues) expressed in bacterial expression system assessed as residual activity at 1 uM by Kinomescan method relative to control"}, "[15]": {"target": "Platelet-derived growth factor receptor beta (Homo sapiens) (UniProt P09619)", "assay": "Inhibition of wild-type human partial length PDGFRB (V582 to Y1009 residues) expressed in bacterial expression system assessed as residual activity at 1 uM by Kinomescan method relative to control"}, "[16]": {"target": "Serine/threonine-protein kinase N1 (Homo sapiens) (UniProt Q16512)", "sequence (Q16512 2-942 limits assumed)": "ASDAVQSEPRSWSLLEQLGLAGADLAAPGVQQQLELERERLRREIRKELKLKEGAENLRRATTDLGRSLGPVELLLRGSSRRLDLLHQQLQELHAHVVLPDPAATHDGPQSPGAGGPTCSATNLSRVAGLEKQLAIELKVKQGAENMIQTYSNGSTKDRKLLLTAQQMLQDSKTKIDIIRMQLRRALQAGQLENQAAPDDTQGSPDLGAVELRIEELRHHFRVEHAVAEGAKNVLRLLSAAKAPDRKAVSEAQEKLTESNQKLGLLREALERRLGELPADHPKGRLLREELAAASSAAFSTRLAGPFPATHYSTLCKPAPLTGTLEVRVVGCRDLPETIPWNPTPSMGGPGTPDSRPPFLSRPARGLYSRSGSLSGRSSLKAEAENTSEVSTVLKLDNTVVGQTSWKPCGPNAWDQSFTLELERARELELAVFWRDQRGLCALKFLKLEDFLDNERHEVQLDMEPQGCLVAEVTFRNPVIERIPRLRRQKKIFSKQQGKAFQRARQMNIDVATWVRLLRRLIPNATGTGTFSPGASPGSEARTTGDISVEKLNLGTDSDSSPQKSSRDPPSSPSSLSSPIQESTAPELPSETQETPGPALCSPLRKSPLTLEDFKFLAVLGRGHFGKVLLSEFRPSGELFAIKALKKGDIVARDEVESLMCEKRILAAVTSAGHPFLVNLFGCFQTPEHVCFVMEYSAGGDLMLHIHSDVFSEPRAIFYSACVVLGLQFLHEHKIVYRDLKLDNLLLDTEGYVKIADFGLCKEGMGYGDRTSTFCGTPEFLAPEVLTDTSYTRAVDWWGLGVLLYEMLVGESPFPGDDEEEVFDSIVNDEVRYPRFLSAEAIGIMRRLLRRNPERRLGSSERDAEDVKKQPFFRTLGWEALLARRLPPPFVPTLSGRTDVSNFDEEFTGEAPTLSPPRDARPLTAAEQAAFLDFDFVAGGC", "assay": "Inhibition of wild-type human partial length PKN1 (E598 to C948 residues) expressed in bacterial expression system assessed as residual activity at 1 uM by Kinomescan method relative to control"}, "[17]": {"target": "Proto-oncogene tyrosine-protein kinase ROS (Homo sapiens) (UniProt P08922)", "sequence (P08922 whole entry, the tested form may be a part)": "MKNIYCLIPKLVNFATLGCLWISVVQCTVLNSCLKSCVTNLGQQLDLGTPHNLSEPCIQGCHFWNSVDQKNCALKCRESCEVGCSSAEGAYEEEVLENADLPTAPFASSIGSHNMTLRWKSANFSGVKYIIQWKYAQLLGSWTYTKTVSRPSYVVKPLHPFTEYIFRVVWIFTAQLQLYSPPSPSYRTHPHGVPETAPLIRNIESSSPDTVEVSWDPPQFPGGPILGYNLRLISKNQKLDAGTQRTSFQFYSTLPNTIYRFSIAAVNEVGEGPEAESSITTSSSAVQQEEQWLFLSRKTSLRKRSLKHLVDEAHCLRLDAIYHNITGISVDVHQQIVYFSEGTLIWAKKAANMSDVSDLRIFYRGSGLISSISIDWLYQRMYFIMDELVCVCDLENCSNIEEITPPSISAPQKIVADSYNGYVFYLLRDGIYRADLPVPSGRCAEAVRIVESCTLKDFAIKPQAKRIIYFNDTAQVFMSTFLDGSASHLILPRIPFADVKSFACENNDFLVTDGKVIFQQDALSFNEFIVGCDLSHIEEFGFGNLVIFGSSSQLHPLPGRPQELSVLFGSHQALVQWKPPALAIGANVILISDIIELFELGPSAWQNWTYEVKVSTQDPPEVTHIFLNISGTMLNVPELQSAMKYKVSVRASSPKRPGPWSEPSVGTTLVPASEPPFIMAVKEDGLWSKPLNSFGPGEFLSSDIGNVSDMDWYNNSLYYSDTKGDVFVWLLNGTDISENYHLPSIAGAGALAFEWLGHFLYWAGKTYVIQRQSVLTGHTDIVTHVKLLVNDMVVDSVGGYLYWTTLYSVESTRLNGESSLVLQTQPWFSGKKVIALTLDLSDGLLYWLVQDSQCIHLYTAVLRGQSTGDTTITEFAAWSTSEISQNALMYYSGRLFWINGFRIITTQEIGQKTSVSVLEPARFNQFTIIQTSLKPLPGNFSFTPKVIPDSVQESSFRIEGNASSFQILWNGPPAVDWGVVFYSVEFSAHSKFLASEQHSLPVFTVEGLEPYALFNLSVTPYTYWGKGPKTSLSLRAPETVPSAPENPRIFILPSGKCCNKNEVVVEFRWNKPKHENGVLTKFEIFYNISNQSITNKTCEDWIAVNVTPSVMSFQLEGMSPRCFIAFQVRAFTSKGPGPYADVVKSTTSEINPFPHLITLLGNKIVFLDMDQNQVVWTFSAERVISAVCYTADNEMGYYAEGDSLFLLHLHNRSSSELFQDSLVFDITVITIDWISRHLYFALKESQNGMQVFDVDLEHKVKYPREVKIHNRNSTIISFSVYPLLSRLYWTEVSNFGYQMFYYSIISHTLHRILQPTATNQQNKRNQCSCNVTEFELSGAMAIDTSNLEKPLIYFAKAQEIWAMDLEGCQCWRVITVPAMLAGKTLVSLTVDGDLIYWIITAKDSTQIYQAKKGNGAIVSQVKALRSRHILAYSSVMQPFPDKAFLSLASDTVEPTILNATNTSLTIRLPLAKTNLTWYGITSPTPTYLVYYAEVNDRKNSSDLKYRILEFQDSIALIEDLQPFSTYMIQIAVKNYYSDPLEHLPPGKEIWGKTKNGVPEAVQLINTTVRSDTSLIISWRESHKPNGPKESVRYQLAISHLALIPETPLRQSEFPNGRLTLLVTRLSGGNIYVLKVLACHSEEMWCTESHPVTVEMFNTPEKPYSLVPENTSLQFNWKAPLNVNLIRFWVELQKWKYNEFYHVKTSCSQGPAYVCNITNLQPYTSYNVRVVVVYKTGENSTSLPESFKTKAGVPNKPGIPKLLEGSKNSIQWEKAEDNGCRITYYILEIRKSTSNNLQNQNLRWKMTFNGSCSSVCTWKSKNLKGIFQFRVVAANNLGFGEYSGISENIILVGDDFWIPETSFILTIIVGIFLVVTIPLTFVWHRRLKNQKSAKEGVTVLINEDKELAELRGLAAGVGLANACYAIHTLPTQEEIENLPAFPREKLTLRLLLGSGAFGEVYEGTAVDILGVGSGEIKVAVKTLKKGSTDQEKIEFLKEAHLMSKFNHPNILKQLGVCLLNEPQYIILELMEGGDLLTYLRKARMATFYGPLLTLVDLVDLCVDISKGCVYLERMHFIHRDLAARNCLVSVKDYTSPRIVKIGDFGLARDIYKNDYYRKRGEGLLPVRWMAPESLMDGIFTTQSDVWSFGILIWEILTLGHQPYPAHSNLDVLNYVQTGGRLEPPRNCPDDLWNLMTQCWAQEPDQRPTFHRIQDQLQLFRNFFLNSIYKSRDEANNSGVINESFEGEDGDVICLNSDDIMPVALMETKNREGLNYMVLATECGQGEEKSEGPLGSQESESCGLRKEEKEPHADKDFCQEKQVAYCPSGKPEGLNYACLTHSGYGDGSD", "assay": "Inhibition of wild-type human partial length ROS1 (A1921 to N2240 residues) expressed in bacterial expression system assessed as residual activity at 1 uM by Kinomescan method relative to control"}, "[18]": {"target": "Ribosomal protein S6 kinase alpha-1 (Homo sapiens) (UniProt Q15418)", "assay": "Inhibition of wild-type human partial length N-terminal RSK1 kinase domain 1 (M1 to E388 residues) expressed in bacterial expression system assessed as residual activity at 1 uM by Kinomescan method relative to control"}, "[19]": {"target": "Serine/threonine-protein kinase TAO3 (Homo sapiens) (UniProt Q9H2K8)", "assay": "Inhibition of wild-type human partial length TAOK3 (M1 to T316 residues) expressed in mammalian expression system assessed as residual activity at 1 uM by Kinomescan method relative to control"}, "[20]": {"target": "Tyrosine-protein kinase receptor TYRO3 (Homo sapiens) (UniProt Q06418)", "assay": "Inhibition of wild-type human partial length TYRO3 (S497 to T814 residues) expressed in bacterial expression system assessed as residual activity at 1 uM by Kinomescan method relative to control"}, "[21]": {"target": "Mitogen-activated protein kinase kinase kinase 20 (Homo sapiens) (UniProt Q9NYL2)", "assay": "Inhibition of wild-type human partial length ZAK (M1 to L331 residues) expressed in bacterial expression system assessed as residual activity at 1 uM by Kinomescan method relative to control"}, "[22]": {"target": "Death-associated protein kinase 3 (Homo sapiens) (UniProt O43293)", "assay": "Inhibition of wild-type human partial length DAPK3 (M1 to A277 residues) expressed in bacterial expression system assessed as residual activity at 1 uM by Kinomescan method relative to control"}, "[23]": {"target": "Serine/threonine-protein kinase ICK (Homo sapiens) (UniProt Q9UPZ9)", "assay": "Inhibition of wild-type human partial length ICK (M1 to P314 residues) expressed in mammalian expression system assessed as residual activity at 1 uM by Kinomescan method relative to control"}, "[24]": {"target": "Receptor-interacting serine/threonine-protein kinase 3 (Homo sapiens) (UniProt Q9Y572)", "assay": "Inhibition of wild-type human partial length RIPK3 (M1 to Q307 residues) expressed in bacterial expression system assessed as residual activity at 1 uM by Kinomescan method relative to control"}, "[25]": {"target": "Serine/threonine-protein kinase 38-like (Homo sapiens) (UniProt Q9Y2H1)", "assay": "Inhibition of wild-type human partial length NDR2 (N34 to E447 residues) expressed in bacterial expression system assessed as residual activity at 1 uM by Kinomescan method relative to control"}, "[26]": {"target": "3-phosphoinositide-dependent protein kinase 1 (Homo sapiens) (UniProt O15530)", "assay": "Inhibition of PDK1 (unknown origin) assessed as residual activity at 1 uM by Kinomescan method relative to control"}},
  "data": [
    {"smiles": "CCOc1nc(Nc2ccc(C(=O)N3CCOCC3)cc2OC)nc2[nH]ccc12", "values": [
      {"measurement": "fraction unbound", "setting": "[1]", "value": 0.01},
      {"measurement": "Activity", "setting": "[2]", "value": 100, "unit": "%"},
      {"measurement": "Activity", "setting": "[3]", "value": 104, "unit": "%"},
      {"measurement": "Activity", "setting": "[4]", "value": 101, "unit": "%"},
      {"measurement": "Activity", "setting": "[5]", "value": 103, "unit": "%"},
      {"measurement": "Activity", "setting": "[6]", "value": 84.5, "unit": "%"},
      {"measurement": "Activity", "setting": "[7]", "value": 101, "unit": "%"},
      {"measurement": "Activity", "setting": "[8]", "value": 66.9, "unit": "%"},
      {"measurement": "Activity", "setting": "[9]", "value": 110, "unit": "%"},
      {"measurement": "Activity", "setting": "[10]", "value": 111, "unit": "%"},
      {"measurement": "Activity", "setting": "[11]", "value": 99.8, "unit": "%"},
      {"measurement": "Activity", "setting": "[12]", "value": 101, "unit": "%"},
      {"measurement": "Activity", "setting": "[13]", "value": 96.1, "unit": "%"},
      {"measurement": "Activity", "setting": "[14]", "value": 109, "unit": "%"},
      {"measurement": "Activity", "setting": "[15]", "value": 90.9, "unit": "%"},
      {"measurement": "Activity", "setting": "[16]", "value": 94.8, "unit": "%"},
      {"measurement": "Activity", "setting": "[17]", "value": 52.5, "unit": "%"},
      {"measurement": "Activity", "setting": "[18]", "value": 87.1, "unit": "%"},
      {"measurement": "Activity", "setting": "[19]", "value": 97.8, "unit": "%"},
      {"measurement": "Activity", "setting": "[20]", "value": 109, "unit": "%"},
      {"measurement": "Activity", "setting": "[21]", "value": 97.2, "unit": "%"},
      {"measurement": "Activity", "setting": "[22]", "value": 66.9, "unit": "%"},
      {"measurement": "Activity", "setting": "[23]", "value": 104, "unit": "%"},
      {"measurement": "Activity", "setting": "[24]", "value": 108, "unit": "%"},
      {"measurement": "Activity", "setting": "[25]", "value": 96.8, "unit": "%"},
      {"measurement": "Activity", "setting": "[26]", "value": 93.1, "unit": "%"}
    ]}
  ]
}
